Data from ChEMBL document CHEMBL4680272 (Eur J Med Chem, 2020).
Active and inactive are the calls of the source. No cut-off for these calls is given here.

How the values were obtained:
[1] = Inhibition of Influenza A virus (A/Anhui/1/2005(H5N1) Neuraminidase using MUNANA as substrate preincubated for 5 to 15 mins followed by substrate addition and measured after 30 mins by fluorescence spectrophotometric method
[2] = Inhibition of Influenza A virus (A/California/04/2009 (H1N1)) Neuraminidase using MUNANA as substrate preincubated for 5 to 15 mins followed by substrate addition and measured after 30 mins by fluorescence spectrophotometric method
in vivo = conditions: Sprague-Dawley, rat, iv, 10 mg/kg
[3] = AUC in Sprague-Dawley rat at 10 mg/kg, po measured for 24 hrs by LC-MS/MS analysis; assay type: ADME, organism-based; parameters: time 24 hrs, dose 10 mg/kg; conditions: in vivo
[4] = Inhibition of Influenza A virus (A/Babol/36/2005 (H3N2)) Neuraminidase using MUNANA as substrate preincubated for 5 to 15 mins followed by substrate addition and measured after 30 mins by fluorescence spectrophotometric method
[5] = Cmax in Sprague-Dawley rat at 10 mg/kg, po measured for 24 hrs by LC-MS/MS analysis; assay type: ADME, organism-based; parameters: route oral, dose 10 mg/kg, time 24 hrs; conditions: in vivo
[6] = Bioavailability in Sprague-Dawley rat at 10 mg/kg, iv measured for 24 hrs by LC-MS/MS analysis; assay type: ADME, organism-based; conditions: in vivo
[7] = AUC in Sprague-Dawley rat at 10 mg/kg, iv measured for 24 hrs by LC-MS/MS analysis; assay type: ADME, organism-based; parameters: dose 10 mg/kg, time 24 hrs; conditions: in vivo
[8] = Tmax in Sprague-Dawley rat at 10 mg/kg, po by LC-MS/MS analysis; assay type: ADME, organism-based; conditions: in vivo
[9] = tested on: Influenza A virus (A/Anhui/1/2005(H5N1)); assay: Inhibition of Influenza A virus (A/Anhui/1/2005(H5N1) Neuraminidase using MUNANA as substrate at 10 uM preincubated for 5 to 15 mins followed by substrate addition and measured after 30 mins by fluorescence spectrophotometric method; conditions: time 35-45 min
[10] = tested on: Influenza A virus (A/Anhui/1/2005(H5N1)); assay: Inhibition of Influenza A virus (A/Anhui/1/2005(H5N1) Neuraminidase using MUNANA as substrate at 100 uM preincubated for 5 to 15 mins followed by substrate addition and measured after 30 mins by fluorescence spectrophotometric method; conditions: time 35-45 min
[11] = Oral bioavailability in ferret; assay type: ADME, organism-based, Mustela putorius furo; conditions: in vivo
[12] = human, plasma
in vitro [13] = conditions: human, plasma
[14] = Oral bioavailability in rat; assay type: ADME, organism-based; conditions: in vivo
in vitro [15] = conditions: human, liver microsomes
[16] = AUC in Sprague-Dawley rat at 50 mg/kg, po measured for 24 hrs by LC-MS/MS analysis; assay type: ADME, organism-based; parameters: time 24 hrs, dose 50 mg/kg; conditions: in vivo
[17] = Half life in Sprague-Dawley rat at 50 mg/kg, po measured for 24 hrs by LC-MS/MS analysis; assay type: ADME, organism-based; conditions: in vivo
in vitro [18] = conditions: mouse, liver microsomes
in vitro [19] = conditions: rat, liver microsomes
in vitro [20] = conditions: human, plasma; remark: listed apart in the source
in vitro [21] = conditions: human, liver microsomes; remark: listed apart in the source
in vitro [22] = conditions: human, plasma; remark: listed apart in the source
[23] = Cmax in Sprague-Dawley rat at 50 mg/kg, po measured for 24 hrs by LC-MS/MS analysis; assay type: ADME, organism-based; parameters: route oral, dose 50 mg/kg, time 24 hrs; conditions: in vivo
in vitro [24] = conditions: rat, liver microsomes; remark: listed apart in the source
in vitro [25] = conditions: mouse, liver microsomes; remark: listed apart in the source
[26] = human, plasma, 2 h
[27] = Tmax in Sprague-Dawley rat at 50 mg/kg, po by LC-MS/MS analysis; assay type: ADME, organism-based; conditions: in vivo
[28] = Oral bioavailability in Sprague-Dawley rat at 50 mg/kg measured for 24 hrs by LC-MS/MS analysis; assay type: ADME, organism-based; conditions: in vivo

CCC(CC)O[C@@H]1C=C(C(=O)O)C[C@H](N)[C@H]1NC(C)=O [OSELTAMIVIR CARBOXYLATE]
IC50 [1]: 210 nM
IC50 [2]: 2500 nM
half-life at 24 h (in vivo): 1.6 h
AUC at 24 h [3]: 300 ng·h/mL
IC50 [4]: 41.7 nM
Cmax [5]: 30 ng/mL
F [6]: 100%
AUC at 24 h [7]: 8400 ng·h/mL
Tmax [8]: 4 h

CCC(CC)O[C@@H]1C=C(C(=O)O)C[C@H](NC(=O)NCc2ccc(OC)cc2)[C@H]1NC(C)=O
inhibition [9]: inactive
inhibition [10]: 36.5%

CCC(CC)O[C@@H]1C=C(C(=O)O)C[C@H](NC(N)=S)[C@H]1NC(C)=O
inhibition [9]: 16.9%
inhibition [10]: 51.3%

CCC(CC)O[C@@H]1C=C(C(=O)O)C[C@H](NC(=O)NC(C)C)[C@H]1NC(C)=O
inhibition [9]: 8.3%
inhibition [10]: 32.3%

CCC(CC)[C@H](NC(C)=O)[C@@H]1[C@H](O)[C@@H](C(=O)O)C[C@H]1NC(=N)N [PERAMIVIR ANHYDROUS]
bioavailability [11]: 2.5%

CCC(CC)O[C@@H]1C=C(C(=O)O)C[C@H](NC(=O)N2CCCCC2)[C@H]1NC(C)=O
inhibition [9]: 25.6%
inhibition [10]: 56.4%

CCC(CC)O[C@@H]1C=C(C(=O)O)C[C@H](NC(=S)Nc2ccccc2)[C@H]1NC(C)=O
inhibition [9]: 16.6%
inhibition [10]: 47.1%

CCC(CC)O[C@@H]1C=C(C(=O)O)C[C@H](NC(=S)NCc2cccc(F)c2)[C@H]1NC(C)=O
inhibition [9]: inactive
inhibition [10]: 28.1%

CCC(CC)O[C@@H]1C=C(C(=O)O)C[C@H](NC(=S)NC2CC2)[C@H]1NC(C)=O
inhibition [9]: 8.7%
inhibition [10]: 29.2%

CCC(CC)O[C@@H]1C=C(C(=O)O)C[C@H](NC(=O)NCCc2ccccc2)[C@H]1NC(C)=O
inhibition [9]: inactive
inhibition [10]: 17.7%

CCC(CC)O[C@@H]1C=C(C(=O)O)C[C@H](NC(=O)N(C)C)[C@H]1NC(C)=O
IC50 ([1]; read-out: IC50): 4830 nM

CC(C)[N+](C)(CCOC(=O)C1c2ccccc2Oc2ccccc21)C(C)C.[Br-] [PROPANTHELINE BROMIDE]
Stabilty [12]: 100%
remaining at 10 min (in vitro [13]): 68.2%

CCC(CC)O[C@@H]1C=C(C(=O)O)C[C@H](NC(=S)NCc2ccc(F)cc2)[C@H]1NC(C)=O
inhibition [9]: inactive
inhibition [10]: 21%

CCC(CC)O[C@@H]1C=C(C(=O)O)C[C@H](NC(=O)Nc2ccccc2)[C@H]1NC(C)=O
inhibition [9]: 17.6%
inhibition [10]: 32.6%

CCC(CC)O[C@@H]1C=C(C(=O)O)C[C@H](NC(=O)NCc2ccccc2)[C@H]1NC(C)=O
inhibition [9]: 6.8%
inhibition [10]: 35.1%

CO[C@@H]([C@@H]1OC(C(=O)O)=C[C@H](NC(=N)N)[C@H]1NC(C)=O)[C@H](O)CO
bioavailability [14]: 3.5%

CCC(CC)O[C@@H]1C=C(C(=O)O)C[C@H](NC(N)=O)[C@H]1NC(C)=O
remaining at 1 h (in vitro [15]): 99.1%
Stabilty [12]: 100%
AUC at 24 h [16]: 10300 ng·h/mL
half-life [17]: 9.95 h
half-life at 1 h (in vitro [18]): > 2.42 h
IC50 ([1]; read-out: IC50): 254 nM
half-life at 1 h (in vitro [19]): > 2.42 h
remaining at 0.5 h (in vitro [20]): 99.1%
half-life at 1 h (in vitro [21]): > 2.42 h
remaining at 10 min (in vitro [13]): 101%
remaining at 1 h (in vitro [22]): 102%
IC50 [2]: 8700 nM
half-life at 24 h (in vivo): 2.07 h
Cmax [23]: 3670 ng/mL
remaining at 1 h (in vitro [24]): 85.5%
remaining at 1 h (in vitro [25]): 100%
Stabilty [26]: 122.6%
IC50 [4]: 169 nM
Tmax [27]: 0.75 h
F [6]: 100%
AUC at 24 h [7]: 23200 ng·h/mL
bioavailability [28]: 8.8%

CCC(CC)O[C@@H]1C=C(C(=O)O)C[C@H](NC(=O)Nc2cccc(Br)c2)[C@H]1NC(C)=O
IC50 ([1]; read-out: IC50): 16900 nM

CCC(CC)O[C@@H]1C=C(C(=O)O)C[C@H](NC(=O)NCc2ccc(C#N)cc2)[C@H]1NC(C)=O
inhibition [9]: inactive
inhibition [10]: 32.5%

CCC(CC)O[C@@H]1C=C(C(=O)O)C[C@H](NC(=S)NCc2ccc(Br)cc2)[C@H]1NC(C)=O
inhibition [9]: 17%
inhibition [10]: 59.6%

CCC(CC)O[C@@H]1C=C(C(=O)O)C[C@H](NC(=S)Nc2ccc(C)c(C)c2)[C@H]1NC(C)=O
inhibition [9]: 15.3%
inhibition [10]: 52.4%

CCC(CC)O[C@@H]1C=C(C(=O)O)C[C@H](NC(=S)N(C(C)C)C(C)C)[C@H]1NC(C)=O
inhibition [9]: 20%
inhibition [10]: 80%

CCC(CC)O[C@@H]1C=C(C(=O)O)C[C@H](NC(=O)Nc2cccc([N+](=O)[O-])c2)[C@H]1NC(C)=O
inhibition [9]: 6.5%
inhibition [10]: 36.9%

CCC(CC)O[C@@H]1C=C(C(=O)O)C[C@H](NC(=O)Nc2cc(OC)c(OC)c(OC)c2)[C@H]1NC(C)=O
inhibition [9]: inactive
inhibition [10]: 16.4%

O=C(O)Cc1ccccc1Nc1c(Cl)cccc1Cl [DICLOFENAC]
half-life at 1 h (in vitro [18]): 0.735 h
half-life at 1 h (in vitro [19]): 0.2 h
half-life at 1 h (in vitro [21]): 0.195 h

CCC(CC)O[C@@H]1C=C(C(=O)O)C[C@H](NC(=S)NC)[C@H]1NC(C)=O
IC50 ([1]; read-out: IC50): 18600 nM

CCC(CC)O[C@@H]1C=C(C(=O)O)C[C@H](NC(=O)N(C(C)C)C(C)C)[C@H]1NC(C)=O
inhibition [9]: 32.3%
inhibition [10]: 63.1%

CCC(CC)O[C@@H]1C=C(C(=O)O)C[C@H](NC(=N)N)[C@H]1NC(C)=O
bioavailability [14]: 2.1%
